Measured values taken from patent US20250213546A1, “TREATING CANCER WITH SMALL MOLECULES THAT INHIBIT ACSS-2” (DREXEL UNIVERSITY, priority 2022, published 2025).
Read-outs that look alike come from different tables or passages of the source.

Assays:
[1] = Human liver microsome stability; assay type: in vitro ADME; settings: 60 min, given as fraction
Procedure: (§1) Metabolic Stability and Plasma Stability. Test compound Working solution: 5 μL of compound stock solution (10 mM in dimethyl sulfoxide (DMSO)) were diluted with 495 μL of DMSO (Working solution concentration: 100 μM, 100% DMSO). Propantheline bromide Working solution: 5 μL of Propantheline bromide stock solution (10 mM in H2O) were diluted with 495 μL of H2O (Working solution concentration: 100 μM, 100% H2O)

hACSS-2 = hACSS-2 (Homo sapiens (Human), UniProt Q9NR19); assay: Surface plasmon resonance (SPR) binding to immobilized hACSS-2
Chain of hACSS-2 (Q9NR19 whole entry): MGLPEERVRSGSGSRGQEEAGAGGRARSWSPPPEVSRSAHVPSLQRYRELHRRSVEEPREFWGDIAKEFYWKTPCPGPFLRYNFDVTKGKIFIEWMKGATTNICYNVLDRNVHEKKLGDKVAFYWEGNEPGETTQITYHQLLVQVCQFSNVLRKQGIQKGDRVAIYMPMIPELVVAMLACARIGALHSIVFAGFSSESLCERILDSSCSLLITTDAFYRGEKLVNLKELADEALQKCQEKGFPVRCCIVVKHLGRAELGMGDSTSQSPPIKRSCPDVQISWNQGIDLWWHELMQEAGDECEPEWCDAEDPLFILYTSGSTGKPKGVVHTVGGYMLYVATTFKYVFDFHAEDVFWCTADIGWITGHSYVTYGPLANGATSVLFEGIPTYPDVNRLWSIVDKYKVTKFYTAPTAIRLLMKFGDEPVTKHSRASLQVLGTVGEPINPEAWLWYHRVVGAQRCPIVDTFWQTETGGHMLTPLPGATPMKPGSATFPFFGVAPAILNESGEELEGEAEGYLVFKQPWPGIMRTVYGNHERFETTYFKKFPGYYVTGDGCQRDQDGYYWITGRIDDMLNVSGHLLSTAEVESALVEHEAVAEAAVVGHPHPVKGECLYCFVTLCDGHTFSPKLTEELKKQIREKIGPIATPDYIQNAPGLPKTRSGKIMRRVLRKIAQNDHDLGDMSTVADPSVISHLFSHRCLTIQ
Procedure: SPR characterization. All binding assays were performed on a ProteOn XPR36 SPR Protein Interaction Array System (Bio-Rad Laboratories, Hercules, CA, USA). The instrument temperature was set at 25° C. for all kinetic analyses. ProteOn GLH sensor chips were preconditioned with two short pulses each (10 s) of 50 mM NaOH, 100 mM HCl, and 0.5% sodium dodecyl […]. Then the system was equilibrated with running buffer (1×PBS pH 7.4, 3% DMSO and 0.005% polysorbate 20). The surface of a GLH sensor chip was activated with a 1:100 dilution of a 1:1 mixture of 1-ethyl-3-(3-dimethylaminopropyl) carbodiimide hydrochloride (0.2 M) and sulfo-N-hydroxysuccinimide (0.05 M). […] Then, after unreacted protein had been washed out, excess active ester groups on the sensor surface were capped by a 5 min injection of 1M ethanolamine HCl (pH 8.0) at a flow rate of 5 μL/min. A reference surface was similarly created by immobilizing a nonspecific protein (IgG b12 anti-HIV-1 gp120; was obtained through the NIH AIDS Reagent Program, Division of AIDS, NIAID, NIH: Anti-HIV-1 gp120 Monoclonal (IgG1 b12) from Dr. Dennis Burton and Carlos Barbas) and was used as a background to correct nonspecific binding. Serial dilutions of hACSS-2 inhibitors were then prepared in the running buffer and injected at a flow rate of 100 μL/min, for a 50 s association phase, followed by up to a 5 min dissociation phase using the “one-shot kinetics” capability of the ProteOn instrument. Data were analyzed using the ProteOn Manager Software version 3.0 (Bio-Rad). The responses from the reference flow cell were subtracted to account for the nonspecific binding and injection artifacts. Experimental data were fitted to a simple 1:1 binding model. Experiments were performed in triplicate to detect kinetic and equilibrium dissociation constants (KD).
Overproduction of hACSS-2 was achieved using a prokaryotic expression system. […] The bacterial expressions were then spun down, the supernatant discarded, and the pellets resuspended. After the cells were lysed via sonication, the sample was subjected to ultracentrifugation, and the clarified lysate was applied to a Talon cobalt resin affinity column (Clonetech Laboratories, Mountain View, CA). The bound protein was eluted from the column using 1×PBS pH 7.4 with 0.3 M imidazole, then dialyzed overnight into 20 mM Tris-HCl pH 8.0, concentrated to 10 mg/mL, aliquoted, and stored at −80° C.

Human plasma stability = assay type: in vitro ADME; settings: both sexes, 37° C., up to 120 min, read-out: Human Plasma Stability T1/2
Procedure: as §1
Human plasma from 3 males and 3 females was obtained. Heparin was used as the anticoagulant. The pooled frozen plasma was thawed in a water bath at 37° C. prior to experiment. Plasma was centrifuged at 4000 rpm for 5 min and the clots were removed if any. Using an Apricot automation workstation, 98 μL/well of blank plasma were added to all 96-well reaction plates. (Blank, T0, T10, T30, T60 and T120). The appointed incubation time points are T0 (0 min), Tn (n=0, 10, 30, 60, 120 min). An Apricot automation workstation was used to add 2 μL/well of working solution (100 μM) to all reaction plates except Blank. (T0, T10, T30, T60 and T120). All reaction plates containing mixtures of compound and plasma were incubated at 37° C. in water bath. The reaction plates were incubated at 37° C., and timer was started. At the end of incubation, 500 μL of stop solution was added and mixed (200 ng/mL tolbutamide and 200 ng/ml labetalol in ACN) to precipitate protein. Each plate was sealed and shaken for 20 minutes. After shaking, each plate was centrifuged at 4000 rpm and 4° C. for 20 minutes. After centrifugation, an Apricot automation workstation was used to transfer 150 μL of supernatant from each reaction plate to its corresponding bioanaylsis plate. Each bioanalysis plate was sealed and shaken for 10 minutes prior to LC-MS/MS analysis. The % remaining of test compound after incubation in plasma was calculated using following equation: Remaining=100×(PAR at appointed incubation time/PAR at T0 time) where PAR is the peak area ratio of analyte versus internal standard (IS).

MDR1-MDCK I cells = assay: in vitro; settings: dog, MDCK-MDR1, 1.5 h, 2 µM, pH 7.4
Procedure: (§2) MDCKI MDR1 cell permeability assessment was performed to mimic the blood brain barrier. MDR1-MDCK I cells were seeded onto […] (PET) in 96-well Corning insert systems at 2.5×10^5 cells/mL until to 4-7 days for confluent cell monolayer formation. The transport buffer in the study was HBSS with 10.0 mM HEPES at pH 7.40+0.05. Test compounds were tested at 2.00 μM bi-directionally in duplicate. […] Final DMSO concentration was adjusted to less than 1%. The plate was incubated for 1.5 hours in CO2 incubator at 37±1° C., with 5% CO2 at saturated humidity without shaking. All samples after mixed with acetonitrile containing internal standard were centrifuged at 3220×g for 10 min. For all samples, 150 μL supernatant solution was diluted with 150 μL ultra-pure water for LC-MS/MS analysis. In addition, the efflux ratio of each compound was also determined. Test and reference compounds were quantified by LC-MS/MS analysis based on the peak area ratio of analyte/IS. After transport assay, Lucifer yellow rejection assay are applied to determine the cell monolayer integrity. Buffers are removed from both apical and basolateral chambers, followed by the addition of 75 μL of 100 μM lucifer yellow in transport buffer and 250 μL transport buffer in apical and basolateral chambers, respectively. […] After 30 minutes incubation, 20 μL of lucifer yellow samples are taken from the apical sides, followed by the addition of 60 μL of Transport Buffer. And then 80 μL of lucifer yellow samples are taken from the basolateral sides.
(§3) The apparent permeability coefficient Papp (cm/s) was calculated using the equation: Papp=(dCr/dt)×Vr/(A×C0) where dCr/dt is the cumulative concentration of compound in the receiver chamber as a function of time (μM/s); Vr is the solution volume in the receiver chamber (0.075 mL on the apical side, 0.25 mL on the basolateral side); A is the surface area for the transport, i.e. 0.0804 cm^2 for the area of the monolayer; CO is the initial concentration in the donor chamber (μM). […] Percent of lucifer yellow in basolateral well is calculated using the equation: Where RFUApical and RFUBasolateral are the relative fluorescence unit values of lucifer yellow in the apical and basolateral wells, respectively; VApical and VBasolateral are the volume of apical and basolateral wells (0.075 mL and 0.25 mL), respectively. The % Lucifer Yellow should be less than 1.0.

MDR1 = assay: in vitro; settings: dog
Procedure: as §2, §3

Compound: N[C@H](C(=O)N1CCCC(c2ccccc2)(c2ccccc2)C1)C1CC1 [AD-8007]
- Human Liver Microsome Stability Remaining(T = 60 min) [1]: 0.7723
- Human Liver Microsome Stability Remaining(NCF = 60 min) ([1]; NCF): 0.9563
- koff (hACSS-2; 1:1 binding model, mean, n = 3): 0.547 s⁻¹
- kon (hACSS-2; 1:1 binding model, mean, n = 3): 4790 M⁻¹ s⁻¹
- Kd (hACSS-2; Langmuir isotherm equilibrium fit, mean, n = 3, read-out: KD [μM] equilibrium): 117 µM
- Kd (hACSS-2; global fit, mean, n = 3, read-out: KD [μM] kinetic/global): 149 µM
- Kd (hACSS-2; read-out: Affinity (KD in μM) for hACSS-2 mean ± SD (n = 3), SPR, one site binding model isotherm, triplicate): 89 ± 20 µM
- half-life at 2 µM (Human plasma stability): > 4.82 h
- Note (efflux / BBB assessment) (MDR1-MDCK I cells): AD 8007 has a low efflux ratio
- efflux ratio at 1.5 h, 2 µM (MDR1; MDCK-MDR1, pH 7.4): 8.96
- recovery at 1.5 h, 2 μM (MDR1; MDCK-MDR1, pH 7.4, Mean % Solution Recovery A to B): 81.3%
- recovery at 1.5 h, 2 μM (MDR1; MDCK-MDR1, pH 7.4, Mean % Solution Recovery B to A): 97%
